Measured values as given in patent EP4793267A1, “CARBONATE CONTAINING LIPID COMPOUNDS AND COMPOSITIONS FOR INTRACELLULAR DELIVERY OF THERAPEUTIC AGENTS” (ModernaTX, Inc., priority 2019, dated 2021).

Columns and labels:
[1] = system: hepatocyte protein expression (hEPO); experiment: Expression of hEPO induced by LNPs comprising the lipid and hEPO mRNA in mice; format: in vivo; conditions: LNP with DSPC, cholesterol, PEG-1, mRNA encoding hEPO, CD-1 mice; for hEPO AUC: intravenous; for Mean 6 hr hEPO Concentration (mIU/mL): serum, 6 h after intravenous injection
Description: (§1) To assess potency of expression and metabolic stability of lipids of the disclosure the hepatocyte protein expression (hEPO) following administration of a nanoparticle of the disclosure (e.g., a loaded LNP) to mice was measured.
(§2) Lipid nanoparticles (LNPs) including DSPC as a phospholipid, cholesterol as a structural lipid, PEG-1 as a PEG lipid, a compound according to Formula (A), (A1), (A2), (A3), (B), (1), (I'), (I-X), (I-Y), (I-Ya) (IA), (Ia), (Ib), (Ic), (Id), (Ie), (If), (Ig), (II), (IIa), or (IIb), and an mRNA encoding hEPO were intravenously administered to CD-1 mice. The concentration of hEPO in serum was tested at 6 h after injection. […] Table 2. Expression of hEPO induced by administration of LNPs comprising lipids of the disclosure in mice and residual lipid levels in the liver.

[2] = Residual parent lipid levels in the liver after LNP administration to mice; format: in vivo; conditions: 24 h after intravenous LNP administration, CD-1 mice
Description: as §1, §2

SMILES | hEPO AUC [1] | Mean 6 hr hEPO Concentration (mIU/mL) [1] [mIU/mL] | Parent Lipid Remaining (nmol/g liver tissue) at 24 h [2] [nmol/g liver tissue]
CCCCCCCCCOC(=O)OCCCCCCN(CCO)CCCCCCCC(=O)OC(CCCCCCCC)CCCCCCCC [Compound 6, Heptadecan-9-yl 8-((2-hydroxyethyl)(6-(((nonyloxy)carbonyl)oxy)hexyl)amino)octanoate] | 8.19E+06 | 509181.4 | 3 ± 1
CCCCCCCCC(CCCCCCCC)OC(=O)CCCCCCCN(CCO)CCCCCCOC(=O)OCCC(CCCCC)CCCCC [Compound 64, Heptadecan-9-yl 8-((2-hydroxyethyl)(6-((((3-pentyloctyl)oxy)carbonyl)oxy)hexyl)amino)octanoate] | 1.11E+07 | 735556.2 | 72 ± 17
CCCCCCCCC(CCCCCCCC)OC(=O)CCCCCCCN(CCCCCCOC(=O)OCCC(CCCCCC)CCCCCC)CCCNc1c(NC)c(=O)c1=O [Compound 65, Heptadecan-9-yl 8-((6-((((3-hexylnonyl)oxy)carbonyl)oxy)hexyl)(3-((2-(methylamino)-3,4-dioxocyclobut-1-en-1-yl)amino)propyl)amino)octanoate] | 7.76E+06 | 521341.6 | 364 ± 58
CCCCCCCCC(CCCCCCCC)OC(=O)CCCCCCCN(CCO)CCCCCCOC(=O)OCCC(CCCCCC)CCCCCC [Compound 66, Heptadecan-9-yl 8-((6-((((3-hexylnonyl)oxy)carbonyl)oxy)hexyl)(2-hydroxyethyl)amino)octanoate] | 9.77E+06 | 641899.1 | 67 ± 8
CCCCCCCCC(CCCCCCCC)OC(=O)CCCCCCCN(CCCCCCOC(=O)OCCC(CCCCC)CCCCC)CCCNc1c(NC)c(=O)c1=O [Compound 67, Heptadecan-9-yl 8-((3-((2-(methylamino)-3,4-dioxocyclobut-1-en-1-yl)amino)propyl)(6-((((3-pentyloctyl)oxy)carbonyl)oxy)hexyl)amino)octanoate] | 1.31E+07 | 891982.2 | 94 ± 15
